What was measured:
[1] = Stability experiment for polymorph Form A of Compound 1 (stability chamber); format: physicochemical
Description: The physical stability of Form A of Compound 1 was determined as follows. Compound 1 prepared according to Preparation Example 3 was analyzed by pXRD, DSC, HPLC and ^1H-NMR and found to be of pure crystal Form A of 99.9% purity (by HPLC peak area at 230 nm detection wavelength). An aliquot of the sample (3.0 g) was placed in a primary polyethylene bag, the primary bag was flushed with nitrogen gas and sealed. The primary polyethylene bag was then placed in a secondary polyethylene bag which was again flushed with nitrogen gas and a silica gel sachet was placed between the inner and the outer bag. The double bagged material was then placed in a triple laminated aluminum pouch and placed in a stability chamber at 40° C. for 30 days. Analysis by HPLC and ^1H-NMR of the resulting material indicated pure Form A of Compound 1 of 99.9% purity (by HPLC peak area at 230 nm).

[2] = Relative stability experiments: non-competitive and competitive interconversion of crystal forms of Compound 1; format: physicochemical; conditions: for crystal form of the resulting material (pXRD, DSC, TGA, 1H-NMR): non-competitive, single starting form, refluxed in deionized water at about 95° C. for 3 hours
Description: The relative stability of various crystal forms of Compound 1 were subjected to non-competitive and competitive interconversion experiments.
In Example 12a, Form A of Compound 1 (0.4 g) prepared according to Preparation Example 5c was refluxed in deionized water (4 mL) at about 95° C. for 3 hours. The slurry was cooled to 25-30° C., filtered, suction dried for 1 hour and dried in a vacuum oven at 70° C. and 8 kPa absolute pressure for 12 hours.
(§1) In Example 12b, Form B of Compound 1 (0.4 g) prepared according to Preparation Example 5f was refluxed in deionized water (4 mL) at about 95° C. for 3 hours. The slurry was cooled to 25-30° C., filtered, suction dried for 1 hour and dried in a vacuum oven at 70° C. and 8 kPa absolute pressure for 12 hours. Analysis by pXRD, DSC, TGA and ^1H-NMR of the resulting material indicated Form A.
as §1, with “12c,” for “12b,”, “D” for “B”, “5g” for “5f”
as §1, with “12d,” for “12b,”, “TS” for “B”, “(1” for “(0.4”, “1” for “5f”, “(10” for “(4”, “65°” for “70°”
as §1, with “12e, Form A (0.6 g) and” for “12b,”, “B (0.6 g)” for “B”, “1” for “1 (0.4 g)”, “Examples 5c and 5f, respectively, were blended as solids and” for “Example 5f was”, “(12” for “(4”, “65°” for “70°”
(§2) In Example 12f, Form B (0.6 g) and Form D (0.6 g) of Compound 1 prepared according to Preparation Examples 5f and 5g, respectively, were blended as solids and refluxed in deionized water (12 mL) at about 95° C. for 3 hours. The slurry was cooled to 25-30° C., filtered, suction dried for 1 hour and dried in a vacuum oven at 65° C. and 8 kPa absolute pressure for 12 hours. Analysis by pXRD, DSC and ^1H-NMR of the resulting material indicated Form A.
as §2, with “12g,” for “12f,”, “A” for “B”, “5c” for “5f”
as §2, with “12h, Form A (0.25 g),” for “12f,”, “(0.25 g), Form D (0.25” for “(0.6”, “TS (0.25” for “D (0.6”, “5c, 5f, 5g,” for “5f”, “1,” for “5g,”, “(10” for “(12”
In Example 12i, Form A (0.25 g), Form B (0.25 g), Form D (0.25 g) and mixed Forms A and B (0.25 g) of Compound 1 prepared according to Preparation Examples 5c, 5f, 5g and 2, respectively, were blended as solids and refluxed in deionized water (10 mL) at about 95° C. for 3 hours. The slurry was cooled to 25-30° C., filtered, suction dried for 1 hour and dried in a vacuum oven at 65° C. and 8 kPa absolute pressure for 12 hours. Analysis by pXRD, DSC and ^1H-NMR of the resulting material indicated Form A. […]

[3] = Example 12e, competitive: Form A + Form B blended, deionized water, about 95° C., 3 hours
[4] = Example 12g, competitive: Form A + Form D blended, deionized water, about 95° C., 3 hours
[5] = Example 12i, competitive: Forms A, B, D and mixed Forms A and B blended, deionized water, about 95° C., 3 hours
[6] = Example 12j, competitive: Forms A, B, D and mixed Forms A and B blended, methanol, about 55° C., 3 hours
[7] = Example 12k, competitive: Forms A, B and D blended, deionized water, about 55° C., 168 hours
[8] = Example 12h, competitive: Forms A, B, D and TS blended, deionized water, about 95° C., 3 hours
[9] = Example 12f, competitive: Form B + Form D blended, deionized water, about 95° C., 3 hours

## COc1ccc(Cl)c(S(=O)(=O)NC(=O)c2cn3cc(C(F)(F)F)cc(Cl)c3n2)c1 [Form A, 8-chloro-N-[(2-chloro-5-methoxyphenyl)sulfonyl]-6-(trifluoromethyl)-imidazo[1,2-a]pyridine-2-carboxamide]
[1]; 40° C. for 30 days
  crystal form after storage (pXRD and DSC): pure polymorph Form A
[1]; 40° C. for 30 days, sealed under nitrogen in double polyethylene bag and aluminum pouch
  purity after storage (HPLC peak area at 230 nm): 99.9%
[1]; pure solid form
  physical and chemical stability, in words: physically and chemically stable
[2]; [3]
  crystal form of the resulting material: Form A
[2]; [4]
  crystal form of the resulting material: Form A
[2]; [5]
  crystal form of the resulting material: Form A
[2]; [6]
  crystal form of the resulting material: Form A
[2]; [7]
  crystal form of the resulting material: Form A
[2]; [8]
  crystal form of the resulting material: Form A
[2]
  crystal form of the resulting material (pXRD, DSC, TGA, 1H-NMR): remained unchanged, i.e. Form A
[2]; under the conditions studied
  relative thermodynamic stability of the solid forms, in words: most thermodynamically stable polymorph form

## COc1ccc(Cl)c(S(=O)(=O)NC(=O)c2cn3cc(C(F)(F)F)cc(Cl)c3n2)c1 [Form D, 8-chloro-N-[(2-chloro-5-methoxyphenyl)sulfonyl]-6-(trifluoromethyl)-imidazo[1,2-a]pyridine-2-carboxamide]
[2]; [9]
  crystal form of the resulting material: Form A
[2]; [4]
  crystal form of the resulting material: Form A
[2]; [5]
  crystal form of the resulting material: Form A
[2]; [6]
  crystal form of the resulting material: Form A
[2]; [7]
  crystal form of the resulting material: Form A
[2]; [8]
  crystal form of the resulting material: Form A
[2]
  crystal form of the resulting material (pXRD, DSC, TGA, 1H-NMR): Form A

## COc1ccc(Cl)c(S(=O)(=O)NC(=O)c2cn3cc(C(F)(F)F)cc(Cl)c3n2)c1 [Form B, 8-chloro-N-[(2-chloro-5-methoxyphenyl)sulfonyl]-6-(trifluoromethyl)-imidazo[1,2-a]pyridine-2-carboxamide]
[2]; [3]
  crystal form of the resulting material: Form A
[2]; [9]
  crystal form of the resulting material: Form A
[2]; [5]
  crystal form of the resulting material: Form A
[2]; [6]
  crystal form of the resulting material: Form A
[2]; [7]
  crystal form of the resulting material: Form A
[2]; [8]
  crystal form of the resulting material: Form A
[2]
  crystal form of the resulting material (pXRD, DSC, TGA, 1H-NMR): Form A

## COc1ccc(Cl)c(S(=O)(=O)NC(=O)c2cn3cc(C(F)(F)F)cc(Cl)c3n2)c1 [Form TS, 8-chloro-N-[(2-chloro-5-methoxyphenyl)sulfonyl]-6-(trifluoromethyl)-imidazo[1,2-a]pyridine-2-carboxamide]
[2]; [8]
  crystal form of the resulting material: Form A
[2]
  crystal form of the resulting material (pXRD, DSC, TGA, 1H-NMR): Form A

## COc1ccc(Cl)c(S(=O)(=O)NC(=O)c2cn3cc(C(F)(F)F)cc(Cl)c3n2)c1 [mixed Forms A and B, 8-chloro-N-[(2-chloro-5-methoxyphenyl)sulfonyl]-6-(trifluoromethyl)-imidazo[1,2-a]pyridine-2-carboxamide]
[2]; [5]
  crystal form of the resulting material: Form A
[2]; [6]
  crystal form of the resulting material: Form A
[2]; Example 12l: slurry in deionized water stirred at 25° C. for about 168 hours
  crystal form of the resulting material: Form A

Reference: US9040554B2, “Solid forms of nematocidal sulfonamides” (priority 2011, dated 2015)
